Article PMC7044277 (Nature Communications, 2020)
“And” between values parts separate entries of the source, which are not always exact repeats. Equal entries are not always repeated.

Assays:
Type in all cases: cell-based
320 non-olfactory GPCRs [1] = molecular target: T1, 320 non-olfactory GPCRs (Homo sapiens, UniProt P04201); conditions: receptor MAS1; replicate values, Fig_4g
T1 construct: expressed in transfected cells; host or cells: HTLA cells

320 non-olfactory GPCRs [2] = molecular target: 320 non-olfactory GPCRs (Homo sapiens, UniProt P43220)
Chain of 320 non-olfactory GPCRs (Homo sapiens, UniProt P43220) (P43220 24-463): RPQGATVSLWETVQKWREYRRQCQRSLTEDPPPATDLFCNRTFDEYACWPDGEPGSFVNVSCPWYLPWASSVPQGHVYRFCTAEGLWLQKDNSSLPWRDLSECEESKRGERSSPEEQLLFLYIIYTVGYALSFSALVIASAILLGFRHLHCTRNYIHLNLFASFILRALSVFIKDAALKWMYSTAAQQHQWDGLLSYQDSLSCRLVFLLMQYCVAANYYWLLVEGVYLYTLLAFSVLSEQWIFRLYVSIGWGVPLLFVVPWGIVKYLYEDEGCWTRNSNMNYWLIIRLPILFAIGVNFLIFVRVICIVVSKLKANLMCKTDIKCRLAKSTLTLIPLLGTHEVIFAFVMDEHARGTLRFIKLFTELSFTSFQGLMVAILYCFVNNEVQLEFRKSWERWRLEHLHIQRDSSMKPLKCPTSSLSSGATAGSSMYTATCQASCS

320 non-olfactory GPCRs [3] = molecular target: T2, 320 non-olfactory GPCRs (Homo sapiens, UniProt P49146); conditions: receptor NPY2R; replicate values, Fig_4g
T2 construct: expressed in transfected cells; host or cells: HTLA cells
T2 sequence (P49146 whole entry): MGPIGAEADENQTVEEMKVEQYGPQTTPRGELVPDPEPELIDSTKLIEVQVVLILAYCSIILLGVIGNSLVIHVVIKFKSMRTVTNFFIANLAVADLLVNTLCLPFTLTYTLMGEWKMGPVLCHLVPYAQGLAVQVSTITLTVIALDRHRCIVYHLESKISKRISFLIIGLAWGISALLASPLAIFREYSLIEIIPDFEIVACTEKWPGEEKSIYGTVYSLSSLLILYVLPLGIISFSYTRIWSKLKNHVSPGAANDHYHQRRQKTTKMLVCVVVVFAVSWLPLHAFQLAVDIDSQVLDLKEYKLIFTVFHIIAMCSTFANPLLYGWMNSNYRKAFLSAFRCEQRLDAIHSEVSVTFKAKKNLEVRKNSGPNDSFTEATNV

320 non-olfactory GPCRs [4] = molecular target: T3, 320 non-olfactory GPCRs (Homo sapiens, UniProt Q9NS75)
T3 construct: expressed in transfected cells; host or cells: HTLA cells
T3 sequence (Q9NS75 whole entry): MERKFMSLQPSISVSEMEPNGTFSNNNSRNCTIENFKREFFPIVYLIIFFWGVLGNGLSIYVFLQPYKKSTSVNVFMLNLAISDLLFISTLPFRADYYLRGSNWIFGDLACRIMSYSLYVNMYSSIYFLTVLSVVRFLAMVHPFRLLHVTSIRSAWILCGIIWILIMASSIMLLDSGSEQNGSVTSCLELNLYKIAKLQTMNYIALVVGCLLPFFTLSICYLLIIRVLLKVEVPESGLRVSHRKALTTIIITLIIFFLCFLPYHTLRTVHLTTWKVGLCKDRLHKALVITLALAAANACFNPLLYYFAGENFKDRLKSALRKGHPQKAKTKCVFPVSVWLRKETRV
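Wherever Fold of Basal is given: compound tested at 1 µM final concentration.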
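Wherever GPCRome agonism screen response is given: fold over basal response of each receptor without drug.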

T1 sequence (P04201 whole entry): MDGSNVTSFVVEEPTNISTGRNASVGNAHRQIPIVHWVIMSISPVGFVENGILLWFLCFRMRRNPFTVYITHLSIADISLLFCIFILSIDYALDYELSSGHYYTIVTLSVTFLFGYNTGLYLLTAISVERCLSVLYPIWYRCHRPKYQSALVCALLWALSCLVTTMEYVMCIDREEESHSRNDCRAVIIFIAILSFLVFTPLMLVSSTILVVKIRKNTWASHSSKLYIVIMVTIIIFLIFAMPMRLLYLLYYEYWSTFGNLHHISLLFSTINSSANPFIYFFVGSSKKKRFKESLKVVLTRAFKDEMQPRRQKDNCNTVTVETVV

CCOc1cccc2cc(C(C)NCC3(O)CCCCC3)oc12 (stereo not shown) [O4LE6]
GPCRome agonism screen response (320 non-olfactory GPCRs [1]): 0.7017 and 0.6641 and 0.72 | Fold of Basal (320 non-olfactory GPCRs [2]): 0.6919 and 1.003 and 1.157 and 1.2674 | GPCRome agonism screen response (320 non-olfactory GPCRs [3]): 0.7835 and 0.8337 and 0.6188 and 0.7117 | Fold of Basal (320 non-olfactory GPCRs [4]): 2.056 and 1.771 and 2.16 and 1.536
